Key:
[1] = test system: human breast cancer cell line MCF-7; test: Growth inhibition of MCF-7 in vitro; format: cell-based; conditions: Homo sapiens, MCF7; MCF-7, 96 hours of exposure, RPMI1640 with 2% FBS
Protocol: (§1) A human breast cancer cell line MCF-7, containing cells positive for cancer stem cell markers, was cultured in RPMI1640 medium supplemented with 2% FBS, and the growth inhibitory action by the combination of Am80 and 5-AZ was studied. The IC50 values of the agents determined by 96 hours of the exposure were 1 μM and 20 μM, respectively. Thus, in order to study the growth inhibitory action, Am80 was used within the concentration range of 0.125 μM to 1 μM with a common ratio of 2, and 5-AZ was used within the concentration range of 2.5 μM to 20 μM with a common ratio of 2. In cases of use of these agents in combination, the growth inhibitory action was studied using these concentrations.

[2] = test system: CD133-positive human pancreatic cancer stem cells; test: Cell migration in Boyden chambers; format: cell-based; conditions: Am80 1 μM, CD133-positive fraction
Protocol: Pancreatic cancer cells containing pancreatic cancer stem cells were separated into CD133-positive cells and negative cells using magnetic antibody beads, and Am80 was added at 1 μM to the fractions, followed by culturing the cells in Boyden chambers and then observing the cells migrated into the back side of the membrane.

[3] = test system: Human Pancreatic Cancer Stem Cells Transplanted to Nude Mice; test: Ratio of pancreatic cancer stem cells in removed tumor (anti-CD133 flow cytometry); format: in vivo; conditions: Am80 3 mg/kg/day for 1 month, vs control
Protocol: Pancreatic cancer cells (1×10^6 cells) containing pancreatic cancer stem cells were subcutaneously transplanted to nude mice. Mice in which tumor formation was found 2 weeks later were subjected to administration of Am80 for 1 month at 3 mg/kg/day. Thereafter, the tumor was removed, and the tumor cells were treated by trypsin, followed by measuring the ratio of pancreatic cancer stem cells by flow cytometry using an anti-CD133 antibody.

[4] = test system: Pdx1, glucagon gene expression in human pancreatic cancer cell spheroids; test: Quantitative RT-PCR of pancreatic tissue differentiation markers; format: cell-based; conditions: suspension culture with Am80 for 1 week
Protocol: Subsequently, total RNA was extracted from pancreatic cancer cells prepared by performing suspension culture in the presence of Am80 for 1 week, and quantitative RT-PCR was carried out using primers specific to pancreatic tissue-specific differentiation markers.

[5] = test system: human pancreatic cancer cells subcutaneously transplanted to nude mice; test: Pathologic samples of tumor, morphology of cellular tissue; format: in vivo; conditions: Am80 3 mg/kg/day for 1 month, vs control
Protocol: Pancreatic cancer cells (1×10^6 cells) containing pancreatic cancer stem cells were subcutaneously transplanted to nude mice. Mice in which tumor formation was found 2 weeks later were subjected to administration of Am80 for 1 month at 3 mg/kg/day. Pathologic samples of each tumor were prepared to evaluate morphology of cellular tissue.

[6] = test system: human pancreatic cancer cells containing pancreatic cancer stem cells; test: Liver metastasis after transplantation to the pancreas of nude mice; format: in vivo; conditions: Am80 3 mg/kg/day for 1 month
Protocol: Pancreatic cancer cells (1×10^6 cells) containing pancreatic cancer stem cells were transplanted to the pancreas of nude mice, and the size of a tumor formed by metastasis to the liver was measured 1 month later. Am80 was administered at 3 mg/kg/day for 1 month.

[7] = test system: human prostate cancer cell line LNCaP; test: Growth inhibition of LNCaP in vitro; format: cell-based; conditions: Homo sapiens, 96 hours of exposure, RPMI1640 with 10% FBS
Protocol: as §1, with “prostate” for “breast”, “LNCaP,” for “MCF-7,”, “10%” for “2%”, “The IC50 values of the agents determined by 96 hours of the exposure were 1 μM and 20 μM, respectively.” left out, “1.56” for “2.5”, “12.5” for “20”

[8] = test system: human prostate cancer cell line LNCaP; test: Tumor volume, LNCaP/nude mice; format: in vivo
Protocol: A tumor piece of a human prostate cancer cell line LNCaP containing cells positive for cancer stem cell markers was subcutaneously transplanted to the dorsal part of each of 6-week-old female BALB/cAJc1-nu nude mice (4 mice/group) using a trocar needle. At the time when the tumor volume reached 100 to 200 mm^3, the administration was started. Am80 was orally administered once a day at a dose of 1 mg/kg for 21 continuous days, and DXL was intravenously administered at a dose of 5 mg/kg from Day 1, 3 times at intervals of 4 days. In the combination group, the agents were administered at the same doses as, and by the same administration methods as, those in the cases of administration of each single agent. Measurement of the tumor diameter was carried out until the next day of the completion of the administration (Day 22). The longitudinal diameter and the transverse diameter of the tumor were measured using a caliper, and the tumor volume (mm^3) was determined according to the following formula: longitudinal diameter×transverse diameter^2/2. In the control group, physiological saline was intraperitoneally administered from Day 1, 3 times at intervals of 4 days.

[9] = test system: human pancreatic cancer cell line Panc-1 cell clusters; test: Growth of human pancreatic cancer cell spheroids in suspension culture; format: cell-based
Protocol: Culturing of a human pancreatic cancer cell line in DMEM/F12 medium supplemented with B27, 20 ng/mL EGF, 20 ng/mL bFGF, and 4 μg/mL heparin using a low-adhesion dish allows formation of cell clusters, and the cells can be cultured in a suspended state. Under these conditions, the cells can be cultured such that they show increased levels of several cancer stem cell markers as well as markers reported for other cancers. First, the cell clusters containing the cells positive for the cancer stem cell markers were cultured in a medium supplemented with Am80 for 1 week, and the influences of Am80 on the growth of cell clusters and the expression levels of the cancer stem cell markers were analyzed.

[10] = suspension culture with Am80 for 1 week

IC50 [1]: 1 µM
IC50 [7]: 2 µM
SMILES: CC1(C)CCC(C)(C)c2cc(NC(=O)c3ccc(C(=O)O)cc3)ccc21 [Am80, tamibarotene]
cell migration ability [2]: remarkable suppression
ratio of pancreatic cancer stem cells (CD133) in tumor [3]: action to suppress pancreatic cancer stem cells in vivo
gene expression of Pdx1, glucagon and the like [4]: increased gene expression dependently on the Am80 concentration
morphology of pancreatic cancer tissue [5]: differentiated morphology
metastasis of the pancreatic cancer (size of tumor formed by metastasis to the liver) [6]: could be suppressed compared to the control
tumor volume Day 1 ([8]; Am80 1 mg/kg oral daily 21 days, DXL 5 mg/kg i.v. 3 times at intervals of 4 days, Day 1): 121.3 mm^3
tumor volume Day 5 ([8]; Am80 1 mg/kg oral daily, DXL 5 mg/kg i.v., Day 5): 162.1 mm^3
tumor volume Day 9 ([8]; Am80 1 mg/kg oral daily, DXL 5 mg/kg i.v., Day 9): 205.8 mm^3
tumor volume Day 13 ([8]; Am80 1 mg/kg oral daily, DXL 5 mg/kg i.v., Day 13): 282.8 mm^3
tumor volume Day 17 ([8]; Am80 1 mg/kg oral daily, DXL 5 mg/kg i.v., Day 17): 409.9 mm^3
tumor volume Day 22 ([8]; Am80 1 mg/kg oral daily, DXL 5 mg/kg i.v., Day 22): 436.3 mm^3
sizes of the cell clusters ([9]; cultured for a total of 2 weeks in Am80-containing medium): further decreased
growth of the cell clusters [9, 10]: suppressed dependently on the concentration
number of cells [9, 10]: decreased dependently on the concentration

Reference: US20200061007A1, “CANCER STEM CELL PROLIFERATION INHIBITOR” (NATIONAL INSTITUTE OF ADVANCED INDUSTRIAL SCIENCE AND …, priority 2014, published 2020)
